According to a melting point compilation (Tetko et al.; mined from patent text by program, amines drawn as free bases though some values may be those of a salt):

Row | SMILES | melting point
1 | c1ccc(-c2nc3ccccc3n3cncc23)cc1 | 165 to 167 °C
2 | O=C(O)c1cccc(-c2ccc3c(c2)C(Oc2ccc(Cl)cc2Cl)CC3)c1 (centres undefined) | 173 to 174 °C
3 | Cc1ccccc1C(CCC(=O)O)Oc1cc(OCc2ccsc2)ccc1-c1cc(C(=O)O)on1 (racemic) | 162 to 164 °C
4 | CC(C)(c1ccccc1)c1cc(C(C)(C)c2ccccc2)c(O)cc1O | 130 °C
5 | Cn1c(CC(=O)O)ccc1C(=O)c1ccc(N)cc1 | 173 to 175 °C
6 | CC1(C)OC(=O)Nc2ccc(-c3ccc(C#N)s3)cc21 | 264 to 266 °C
7 | COc1cc(C(=O)N(C)C)ccc1OCCCN1CCC(c2noc3cc(F)ccc23)CC1 | 126 to 127 °C
8 | CCCc1nc2c(N)nc3ccccc3c2n1CCCCN(OC)C(C)=O | 138 to 140 °C
9 | CCc1ncnc(N[C@H]2CC[C@@H](C=O)CC2)c1Cl | 96 to 97 °C
10 | COc1ccc(CCC(=O)Nc2cc3c(c(C)c2C)OC(C)(C)C3c2ccc(C)cc2)cc1 (centres undefined) | 149 to 150 °C
11 | O=C(Nc1ccc(OCCCBr)cc1)c1cccc2c(=O)c3ccccc3[nH]c12 | 126 °C
12 | O=C1NN=C(c2ccc(NC(=O)C3(Cl)CC3)cc2)C2CC12 (centres undefined) | 221 to 222 °C
13 | Cn1ncc(NCCN2CCC(c3noc4cc(F)ccc34)CC2)c(Cl)c1=O | 145 to 147 °C
14 | Cc1nc2c(N)nc3cc(OCCNC(=O)OC(C)(C)C)ccc3c2n1CC(C)C | 227 to 228 °C
15 | CC(C)[C@@H](Cc1ccc(C(C)(C)C)cc1)C(=O)N1C(=O)OC[C@H]1Cc1ccccc1 | 124 °C
16 | COC1O[C@H](CC#N)[C@H](OCc2ccccc2)[C@H]1O (some centres undefined) | 59 to 60 °C
17 | CCN1CCC=C(c2csc(N)n2)C1 | 116 to 120 °C
18 | COc1ccc(-c2c(-c3cc(OC)c(OC)c(OC)c3)ncn2-c2ccccc2)cc1O | 176 to 177 °C
19 | CCCCCCN1c2ccc(OC)cc2C(C)(C)C12C=Cc1cc([N+](=O)[O-])cc(OC)c1S2 (centres undefined) | 97 to 98 °C
20 | COc1ccc2c(c1OCCc1ccccc1)CC(C(=O)O)NC2 (racemic) | 232 to 235 °C
21 | CCN(CC1CCCC1)c1nc2c(cc1CN(Cc1cc(C(F)(F)F)cc(C(F)(F)F)c1)C(N)=O)c(C)nn2C | 139 °C
22 | CCOC(=O)c1cc(-c2csc(N(C)S(=O)(=O)c3ccccc3)n2)c(=O)[nH]c1C | 231 to 234 °C
23 | CN1C(=O)CC(c2ccccc2)C1C(O)Cc1cccc(Cl)c1 (centres undefined) | 50 to 52 °C
24 | Cc1nn2c(-c3cccnc3)ccnc2c1C#N | 245 to 246 °C
25 | COc1ccc(CCNC(=S)c2ccccc2C)cc1OC | 94 to 95 °C

Row | SMILES | melting point
26 | COc1cc(CCC(=O)O)ccc1OCCCc1cn(-c2ccc(C(F)(F)F)cn2)nc1C | 136 to 137 °C
27 | CN1C(=O)c2ccccc2Nc2ccccc21 | 210 to 211 °C
28 | Cn1cccc1-c1cc2nccnc2[nH]1 | 208 to 209 °C
29 | COc1ccc(C2NC(C(=O)O)CS2)cc1 (centres undefined) | 150 to 151 °C
30 | COC(=O)c1cc(N)c2cc(Cc3ccc(F)cc3)cnc2c1O | 114 to 115 °C
31 | NC(=O)CNC(=O)c1cccc(-c2ccnc3cc(Cc4cccc(C(F)(F)F)c4)sc23)c1 | 183 to 184 °C
32 | CCOC(=O)C1=C(C)NC(C)=C2C(=O)Nc3ccccc3C21 (centres undefined) | 236 to 238 °C
33 | CN(CCO)c1ccnc(CO)c1Cl | 49 to 53 °C
34 | Cc1nc(C(C)(C)C)c(O)c(C(C)(C)C)n1 | 62 to 65 °C
35 | COC(=O)c1oc(C(C)(C)C)cc1NC(=O)Nc1ccc(F)cc1 | 81 to 82 °C
36 | Cc1ccc(Cc2nc3c(cnn3C(CCCc3ccccc3)C(C)O)c(=O)[nH]2)cc1 (centres undefined) | 133 °C
37 | C[C@H]1CCCC(C)(C)[C@@H]1[C@H](O)c1ccc(OC(F)(F)F)cc1 | 29 to 33 °C
38 | C=CCC(=O)NCCN1CCOc2ccc(OC)cc21 | 80 to 81 °C
39 | Cc1oc(-c2ccccc2)nc1COc1ccc2c(c1)CCC(CC1SC(=O)NC1=O)C2 (centres undefined) | 194 to 195 °C
40 | CCOC(=O)c1cncn1-c1ccc(F)cc1 | 114 to 115 °C
41 | C=CCOCC(C)OC(=O)COc1ccc(Cl)c2cccnc12 (centres undefined) | 59 °C
42 | COC(=O)CCSCCCCCCCCCCCCI | 33 °C
43 | CC(=O)Oc1ccc(C(=NNc2cccc([N+](=O)[O-])c2)c2ccc(OC(C)=O)cc2)cc1 | 88 to 90 °C
44 | CCOP(=O)(OCC)c1cc2nc(OCc3ccccc3)c(OCc3ccccc3)nc2c2c1CN(C)CC2 | 104 °C
45 | CC(C)(C)C(=O)Oc1ccc(CCNc2nc(N)n3nc(-c4ccco4)nc3n2)cc1 | 208 to 210 °C
46 | O=C(O)CCc1cc2nc(Cl)ccc2n1S(=O)(=O)c1cccc(OC(F)(F)F)c1 | 146 °C
47 | Cc1cccc2c1C(=O)C(COC(=O)Nc1ccccc1)(COC(=O)Nc1ccccc1)CS2=O (centres undefined) | 76 to 82 °C
48 | CC(O)c1cc2cc(O)c(Cl)c(Cl)c2s1 (centres undefined) | 173 to 174 °C
49 | O=C(O)Cn1c(=O)c(=O)[nH]c2cc([N+](=O)[O-])ccc21 | > 320 °C
